Measured values taken from patent publication US7541352B2, “Compounds for the treatment of hepatitis C” (Bristol-Myers Squibb Company, priority 2007, dated 2009).
Like-named read-outs stand apart in the source and are kept apart here.

Key:
[1] = target: T1, HCV NS5B RdRp genotype 1b (Hepatitis C virus genotype 1b, UniProt Q9WMX2); assay: Modified HCV NS5B RdRp enzyme assay (preincubation protocol); format: biochemical
T1 construct: The protein was expressed with an 18 amino acid C-terminal truncation to enhance the solubility; made in house; host or cells: E. coli BL21(DE3), pET21a
Experimental: HCV NS5B RdRp cloning, expression, and purification. The cDNA encoding the NS5B protein of HCV, genotype 1b, was cloned into the pET21a expression vector. The protein was expressed with an 18 amino acid C-terminal truncation to enhance the solubility. The E. coli competent cell line BL21(DE3) was used for expression of the protein. Cultures were grown at 37° C. for ˜4 hours until the cultures reached an optical density of 2.0 at 600 nm. The cultures were cooled to 20° C. and induced with 1 mM IPTG. Fresh ampicillin was added to a final concentration of 50 μg/ml and the cells were grown overnight at 20° C.
Cell pellets (3 L) were lysed for purification to yield 15-24 mgs of purified NS5B. The lysis buffer consisted of 20 mM Tris-HCl, pH 7.4, 500 mM NaCl, 0.5% triton X-100, 1 mM DTT, 1 mM EDTA, 20% glycerol, 0.5 mg/ml lysozyme, 10 mM MgCl2, 15 ug/ml deoxyribonuclease I, and Complete TM protease inhibitor tablets (Roche). After addition of the lysis buffer, frozen cell pellets were resuspended using a tissue homogenizer. To reduce the viscosity of the sample, aliquots of the lysate were sonicated on ice using a microtip attached to a Branson sonicator. The sonicated lysate was centrifuged at 100,000×g for 1 hr at 4° C. and filtered through a 0.2 μm filter unit (Corning).
The protein was purified using two sequential chromatography steps: Heparin sepharose CL-6B and polyu sepharose 4B (Pharmacia). The chromatography buffers were identical to the lysis buffer but contained no lysozyme, deoxyribonuclease I, MgCl2 or protease inhibitor and the NaCl concentration of the buffer was adjusted according to the requirements for charging the protein onto the column. Each column was eluted with a NaCl gradient which varied in length from 5-50 column volumes depending on the column type. After the final chromatography step, the resulting purity of the enzyme is >90% based on SDS-PAGE analysis. The enzyme was aliquoted and stored at −80° C.
Standard HCV NS5B RdRp enzyme assay. HCV RdRp genotype 1b assays were run in a final volume of 60 μl in 96 well plates (Corning 3600). The assay buffer is composed of 20 mM Hepes, pH 7.5, 2.5 mM KCl, 2.5 mM MgCl2, 1 mM DTT, 1.6 U RNAse inhibitor (Promega N2515), 0.01 mg/ml BSA (Sigma B6917), and 2% glycerol. All compounds were serially diluted (3-fold) in DMSO and diluted further in water such that the final concentration of DMSO in the assay was 2%. HCV RdRp genotype 1b enzyme was used at a final concentration of 28 nM. A polyA template was used at 6 nM, and a biotinylated oligo-dT 12 primer was used at 180 nM final concentration. Template was obtained commercially (Amersham 27-4110). Biotinylated primer was prepared by Sigma Genosys. 3H-UTP was used at 0.6 μCi (0.29 μM total UTP). Reactions were initiated by the addition of enzyme, incubated at 30° C. for 60 min, and stopped by adding 25 μl of 50 mM EDTA containing SPA beads (4 μg/μl, Amersham RPNQ 0007). Plates were read on a Packard Top Count NXT after >1 hr incubation at room temperature.
Modified HCV NS5B RdRp enzyme assay. A modified enzyme assay was performed essentially as described for the standard enzyme assay except for the following: The biotinylated oligo dT12 primer was precaptured on streptavidin-coated SPA beads by mixing primer and beads in assay buffer and incubating at room temperature for one hour. Unbound primer was removed after centrifugation. The primer-bound beads were resuspended in 20 mM Hepes buffer, pH 7.5 and used in the assay at final concentrations of 20 nM primer and 0.67 μg/μl beads. Order of addition in the assay: enzyme (1.75 nM) was added to diluted compound followed by the addition of a mixture of template (0.36 nM), 3H-UTP (0.6 μCi, 0.29 μM), and primer-bound beads, to initiate the reaction; concentrations given are final. Reactions were allowed to proceed for 4 hours at 30° C.
IC50 values for compounds were determined using seven different [I]. […]

HCV replicon cells = assay: HCV replicon FRET assay; format: cell-based; conditions: Hepatitis C virus
Experimental: FRET Assay Preparation. The HCV FRET screening assay was performed in 96-well cell culture plates. The FRET peptide (Anaspec, Inc.) (Taliani et al., Anal. Biochem. 1996, 240, 60-67) contains a fluorescence donor, EDANS, near one end of the peptide and an acceptor, DABCYL, near the other end. The fluorescence of the peptide is quenched by […] resonance energy transfer (RET) between the donor and the acceptor, but as the NS3 protease cleaves the peptide the products are released from RET quenching and the fluorescence of the donor becomes apparent. The assay reagent was made as follows: 5× cell Luciferase cell culture lysis reagent from Promega (#E153A) diluted to 1× with dH2O, NaCl added to 150 mM final, the FRET peptide diluted to 20 μM final from a 2 mM stock.
To prepare plates, HCV replicon cells, with or without a Renilla luciferase reporter gene, were trypsinized and plated in a 96-well plate with titrated test compounds added in columns 3 through 12; columns 1 and 2 contained a control compound (HCV control inhibitor), and the bottom row contained cells with DMSO only. The plates were then placed in a CO2 incubator at 37° C.
Assays. Subsequent to addition of the test compounds described above (FRET Assay Preparation), at various times the plate was removed and Alamar blue solution (Trek Diagnostics, #00-100) was added to measure cellular toxicity. After reading in a Cytoflour 4000 instrument (PE Biosystems), plates were rinsed with PBS and then used for FRET assay by the addition of 30 ul of the FRET peptide assay reagent described above (FRET Assay Preparation) per well. The plate was then placed into the Cytoflour 4000 instrument which had been set to 340 excite/490 emission, automatic mode for up to 20 cycles and the plate read in a kinetic mode. Typically, the signal to noise using an endpoint analysis after the reads was at least three-fold. Alternatively, after Alamar blue reading, plates were rinsed with PBS, then used for luciferase assay using the Promega Dual-Glo Luciferase Assay System or the Promega EnduRen Live Cell Substrate assay.
Compound analysis was performed by quantification of the relative HCV replicon inhibition and the relative cytotoxicity values. To calculate cytoxicity values, the average Alamar Blue fluorescence signals from the control wells were set as 100% non-toxic. The individual signals in each of the compound test wells were then divided by the average control signal and multiplied by 100% to determine […]. To calculate the HCV replicon inhibition values, an average background value was obtained from the two wells containing the highest amount of HCV control inhibitor at the end of the assay period. These numbers were similar to those obtained from naïve Huh-7 cells. The background numbers were then subtracted from the average signal obtained from the control wells and this number was used as 100% activity. The individual signals in each of the compound test wells were then divided by the averaged control values after background subtraction and multiplied by 100% to determine percent activity. EC50 values were calculated as the concentration which caused a 50% reduction in FRET or luciferase activity. The two numbers generated for the compound plate, percent cytoxicity and percent activity, were used to determine compounds of interest for further analysis.

[2] = HCV NS5B RdRp, determined using the preincubation protocol, read-out: IC50
[3] = HCV replicon cells, determined using the FRET assay, read-out: EC50

T1 sequence (Q9WMX2 2420-2992): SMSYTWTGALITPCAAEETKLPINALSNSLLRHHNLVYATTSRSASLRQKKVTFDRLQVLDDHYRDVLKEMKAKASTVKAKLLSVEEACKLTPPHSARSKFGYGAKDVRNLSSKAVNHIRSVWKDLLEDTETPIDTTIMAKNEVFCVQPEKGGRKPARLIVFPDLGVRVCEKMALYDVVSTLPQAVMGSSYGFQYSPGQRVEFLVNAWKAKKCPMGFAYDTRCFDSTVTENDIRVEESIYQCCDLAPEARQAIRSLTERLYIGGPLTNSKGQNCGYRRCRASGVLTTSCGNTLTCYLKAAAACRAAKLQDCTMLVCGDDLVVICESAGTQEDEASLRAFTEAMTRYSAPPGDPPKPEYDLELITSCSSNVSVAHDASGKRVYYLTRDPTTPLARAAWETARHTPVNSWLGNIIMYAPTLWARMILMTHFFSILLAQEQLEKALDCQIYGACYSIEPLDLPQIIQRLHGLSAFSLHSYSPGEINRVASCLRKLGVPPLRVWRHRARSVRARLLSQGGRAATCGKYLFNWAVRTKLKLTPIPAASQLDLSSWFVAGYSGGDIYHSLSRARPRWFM

| SMILES | IC50 [1, 2] [nM] | EC50 (HCV replicon cells; [3]) [nM] | IC50 [1] [nM] | EC50 (HCV replicon cells) [nM] |
| --- | --- | --- | --- | --- |
| COc1ccc2c(c1)CC(NC(=O)C(=O)N(C)C)Cn1c-2c(C2CCCCC2)c2ccc(C(=O)NS(=O)(=O)N(C)C)cc21 (centres unmarked) | 1 to 500 | 1 to 500 | – | – |
| COc1ccc2c(c1)C1CC1(NC(=O)C(=O)N(C)C)Cn1c-2c(C2CCCCC2)c2ccc(C(=O)NS(=O)(=O)N(C)C)cc21 (centres unmarked) | 1 to 500 | 1 to 500 | – | – |
| COc1ccc2c(c1)C1CC1(NC(=O)C(=O)N1CCOCC1)Cn1c-2c(C2CCCCC2)c2ccc(C(=O)NS(=O)(=O)N(C)C)cc21 (centres unmarked) | 1 to 500 | 1 to 500 | – | – |
| COc1ccc2c(c1)C1CC1(NC(=O)C(=O)N1C3CCC1CN(C)C3)Cn1c-2c(C2CCCCC2)c2ccc(C(=O)NS(=O)(=O)N(C)C)cc21 (centres unmarked) | – | – | 1 to 500 | 1 to 500 |
| COC(=O)C(=O)NC12CC1c1cc(OC)ccc1-c1c(C3CCCCC3)c3ccc(C(=O)NS(=O)(=O)N(C)C)cc3n1C2 (centres unmarked) | 1 to 500 | 1 to 500 | – | – |
| COc1ccc2c(c1)C1CC1(NC(=O)C(=O)N1CC(C)N(C)C(C)C1)Cn1c-2c(C2CCCCC2)c2ccc(C(=O)NS(=O)(=O)N(C)C)cc21 (centres unmarked) | 1 to 500 | 1 to 500 | – | – |
| COc1ccc2c(c1)C1CC1(NC(=O)C(=O)N1CCN(C)CC1)Cn1c-2c(C2CCCCC2)c2ccc(C(=O)NS(=O)(=O)N(C)C)cc21 (centres unmarked) | 1 to 500 | 1 to 500 | – | – |
| COc1ccc2c(c1)C1CC1(NC(=O)C(=O)N1C[C@@H](C)N(C)[C@@H](C)C1)Cn1c-2c(C2CCCCC2)c2ccc(C(=O)NS(=O)(=O)N(C)C)cc21 (some centres unmarked) | 1 to 500 | 1 to 500 | – | – |
| COc1ccc2c(c1)C1CC1(NC(=O)C(=O)N1CC(OC)C1)Cn1c-2c(C2CCCCC2)c2ccc(C(=O)NS(=O)(=O)N(C)C)cc21 (centres unmarked) | 1 to 500 | 1 to 500 | – | – |
| COc1ccc2c(c1)[C@@H]1C[C@]1(NC(=O)C(=O)N1CCOCC1c1ccccc1)Cn1c-2c(C2CCCCC2)c2ccc(C(=O)NS(=O)(=O)N(C)C)cc21 (some centres unmarked) | 1 to 500 | 1 to 500 | – | – |
| COc1ccc2c(c1)C1CC1(N(C)C(=O)C(=O)N1CC(OC)C1)Cn1c-2c(C2CCCCC2)c2ccc(C(=O)NS(=O)(=O)N(C)C)cc21 (centres unmarked) | 1 to 500 | 1 to 500 | – | – |
| COc1ccc2c(c1)[C@@H]1C[C@]1(N(C)C(=O)C(=O)N1CCOCC1c1ccccc1)Cn1c-2c(C2CCCCC2)c2ccc(C(=O)NS(=O)(=O)N(C)C)cc21 (some centres unmarked) | 1 to 500 | 1 to 500 | – | – |
| COc1ccc(C2COCCN2C(=O)C(=O)NC23CC2c2cc(OC)ccc2-c2c(C4CCCCC4)c4ccc(C(=O)NS(=O)(=O)N(C)C)cc4n2C3)cc1 (centres unmarked) | 1 to 500 | 1 to 500 | – | – |
| COc1ccc2c(c1)C1CC1(NC(=O)C(=O)N1CCCN(C)CC1)Cn1c-2c(C2CCCCC2)c2ccc(C(=O)NS(=O)(=O)N(C)C)cc21 (centres unmarked) | 1 to 500 | 1 to 500 | – | – |
| COc1ccc2c(c1)C1CC1(NC(=O)C(=O)N1CCN3CCC1CC3)Cn1c-2c(C2CCCCC2)c2ccc(C(=O)NS(=O)(=O)N(C)C)cc21 (centres unmarked) | 1 to 500 | 1 to 500 | – | – |
| COc1ccc2c(c1)CC(NC(=O)C(=O)N1C3CCC1CN(C)C3)Cn1c-2c(C2CCCCC2)c2ccc(C(=O)NS(=O)(=O)N(C)C)cc21 (centres unmarked) | – | – | 1 to 500 | 1 to 500 |
| COc1ccc2c(c1)C1CC1(NC(=O)C(=O)N(C)C)Cn1c-2c(C2CCCCC2)c2ccc(C(=O)NS(=O)(=O)C(C)C)cc21 (centres unmarked) | 1 to 500 | 1 to 500 | – | – |
| Cc1ccc2c(c1)C1CC1(NC(=O)C(=O)N(C)C)Cn1c-2c(C2CCCCC2)c2ccc(C(=O)NS(=O)(=O)C3CCC3)cc21 (centres unmarked) | 1 to 500 | 1 to 500 | – | – |
| CCC(C)S(=O)(=O)NC(=O)c1ccc2c(C3CCCCC3)c3n(c2c1)CC1(NC(=O)C(=O)N(C)C)CC1c1cc(OC)ccc1-3 (centres unmarked) | 1 to 500 | 1 to 500 | – | – |
| COc1ccc2c(c1)C1CC1(NC(=O)C(=O)N(C)C)Cn1c-2c(C2CCCCC2)c2ccc(C(=O)NS(=O)(=O)CC(C)(C)C)cc21 (centres unmarked) | 1 to 500 | 1 to 500 | – | – |
| COc1ccc2c(c1)C1CC1(NC(=O)N1C3CCC1CN(C)C3)Cn1c-2c(C2CCCCC2)c2ccc(C(=O)NS(=O)(=O)N(C)C)cc21 (centres unmarked) | – | – | 1 to 500 | 1 to 500 |
| COc1ccc2c(c1)C1CC1(NS(=O)(=O)N1CCOCC1)Cn1c-2c(C2CCCCC2)c2ccc(C(=O)NS(=O)(=O)N(C)C)cc21 (centres unmarked) | 1 to 500 | 1 to 500 | – | – |
| COc1ccc(S(=O)(=O)NC23CC2c2cc(OC)ccc2-c2c(C4CCCCC4)c4ccc(C(=O)NS(=O)(=O)N(C)C)cc4n2C3)c(OC)c1 (centres unmarked) | 1 to 500 | 1 to 500 | – | – |
| COc1ccc2c(c1)C1CC1(NC(=O)N1CC3CN(Cc4ccccc4)CC(C1)N3Cc1ccccc1)Cn1c-2c(C2CCCCC2)c2ccc(C(=O)NS(=O)(=O)N(C)C)cc21 (centres unmarked) | – | – | 1 to 500 | – |
| COc1ccc2c(c1)[C@@H]1C[C@]1(NC(=O)N1C3CCC1CN(C)C3)Cn1c-2c(C2CCCCC2)c2ccc(C(=O)NS(=O)(=O)N(C)C)cc21 | – | – | 1 to 500 | 1 to 500 |
| COc1ccc2c(c1)C1CC1(NS(=O)(=O)C1CCN(C(=O)OCc3ccccc3)CC1)Cn1c-2c(C2CCCCC2)c2ccc(C(=O)NS(=O)(=O)N(C)C)cc21 (centres unmarked) | 1 to 500 | 1 to 500 | – | – |
| COc1ccc2c(c1)C1C[C@@]1(NC(=O)C(=O)N(C)C)Cn1c-2c(C2CCCCC2)c2ccc(C(=O)NS(=O)(=O)N(C)C)cc21 (some centres unmarked) [drawing 37] | – | 1 to 500 | – | – |
| COc1ccc2c(c1)[C@H]1C[C@@]1(NC(=O)C(=O)N(C)C)Cn1c-2c(C2CCCCC2)c2ccc(C(=O)NS(=O)(=O)N(C)C)cc21 [drawing 37] | 1 to 500 | – | – | – |
